Measured values published in ChEMBL document CHEMBL1122533 (J Med Chem, 1984).
Peptide text beside a SMILES is read from it. * marks the point of attachment. Cbz = O=C(OCc1ccccc1)*; Boc = CC(C)(C)OC(=O)*

Key:
Rattus norvegicus [1] = experiment: Compound was tested for the in vivo antagonist activity calculated from ED50 value, by estimating at 25 mL the mean blood volume in a 300-g rat and expressed as molarity; type: functional
Rattus norvegicus [2] = experiment: In vivo antagonistic effect on gastric acid secretion in the perfused rat stomach; type: functional

SMILES | Activity (Rattus norvegicus [1]) | ED50 (Rattus norvegicus [2])
CSCC[C@H](NC(=O)[C@H](Cc1c[nH]c2ccccc12)NC(=O)OC(C)(C)C)C(=O)N[C@@H](CC(=O)O)C(N)=O (Boc-Trp-Met-Asp-NH2) | 0.00016 | 7.5 mg/kg
CSCC[C@H](NC(=O)[C@H](Cc1c[nH]c2ccccc12)NC(=O)CNC(=O)OC(C)(C)C)C(=O)N[C@@H](CC(=O)O)C(N)=O (Boc-GWMD-NH2) | 0.0001 | 5 mg/kg
CSCC[C@H](NC(=O)[C@H](Cc1c[nH]c2ccccc12)NC(=O)CNC(=O)[C@H](Cc1ccc(O)cc1)NC(=O)OC(C)(C)C)C(=O)N[C@@H](CC(=O)O)C(N)=O (Boc-YGWMD-NH2) | 3.1e-05 | 2 mg/kg
CSCC[C@H](NC(=O)[C@H](Cc1c[nH]c2ccccc12)NC(=O)CNC(=O)[C@H](Cc1ccc(O)cc1)NC(=O)[C@H](C)NC(=O)[C@H](CCC(=O)O)NC(=O)OCc1ccccc1)C(=O)N[C@@H](CC(=O)O)C(N)=O (Cbz-EAYGWMD-NH2) | 1.8e-05 | 1.5 mg/kg
